{
  "source": "paper PMC3758303",
  "about": "(PLoS ONE, 2013)",
  "key": {"[1]": {"tested_on": "genome-length HCV-RNA (O strain of genotype 1b) replication in HuH-7-derived OR6 cells", "assay": "OR6 RL assay", "format": "cell-based, hepatitis C virus", "settings": "for EC50: Hepatitis C virus, OR6 assay, HuH-7, HCV strain O, 72 hrs, RL assay", "experimental": "(§1) RSc and D7 cells were derived from the cell lines HuH-7 and Li23, respectively, were cultured as described previously, [29]. HuH-7-derived OR6 [13], AH1R [30], and 1B-4R [Ikeda et al., submitted] cells harboring genome-length HCV-RNA and HuH-7-derived polyclonal sOR [31], and RSc-JRN/35B [Ikeda et al., submitted] cells harboring an HCV subgenomic replicon were cultured with medium in the presence of G418 (0.3 mg/ml; Geneticin, Invitrogen, Carlsbad, CA) as described previously. Li23-derived ORL8 [20], ORL11 [20], 1B-4RL [Ikeda et al., submitted], and KAH5RL [Ikeda et al., submitted] cells harboring genome-length HCV-RNA were maintained with medium in the presence of G418 (0.3 mg/ml) as described previously. Li23-derived polyclonal sORL8 and sORL11 cells harboring an HCV replicon, which were established by the transfection of ORN/3-5B/QR,KE,SR RNA into the cured OL8 and OL11 cells, respectively, were also cultured with medium in the presence of G418 (0.3 mg/ml) as described previously. Cured cells, from which the HCV-RNA had been eliminated by IFN treatment, were also maintained with medium in the absence of G418 as described previously. […] Therefore, when HCV-RNA is excluded from the cells or when its level is decreased, the cells are killed in the presence of G418.\nRL assay was performed as described previously, [24]. Briefly, the cells were plated onto 24-well plates (2×10^4 cells per well) in triplicate and then treated with each reagent at several concentrations for 72 hrs. After treatment, the cells were subjected to luciferase assay using the RL assay system (Promega, Madison, WI). The experiments were performed at least in triplicate. From the assay results, the 50% effective concentration (EC50) of each reagent was determined.\n(§2) The SI value of each reagent was determined by dividing the CC50 value by the EC50 value."}, "[2]": {"assay": "WST-1 cell proliferation assay, 1B-4R cells", "format": "cell-based", "settings": "human", "experimental": "(§3) The WST-1 cell proliferation assay was performed as described previously. Briefly, The cells were plated onto 96-well plates (1×10^3 cells per well) in triplicate and then treated with each reagent at several concentrations for 72 hrs. After treatment, the cells were subjected to the WST-1 cell proliferation assay (Takara Bio, Otsu, Japan) according to the manufacturer’s protocol. This assay is based on the enzymatic cleavage of the tetrazolium salt WST-1 to formazan by cellular mitochondrial dehydrogenases present in viable cells. Therefore, there are […] the value of the WST-1 assay becomes zero. The experiments were performed at least in triplicate. From the assay results, the 50% cytotoxic concentration (CC50) of each reagent was determined."}, "[3]": {"tested_on": "genome-length HCV-RNA (KAH5 strain of genotype 1b) replication in Li23-derived KAH5RL cells", "assay": "KAH5RL RL assay", "format": "cell-based", "settings": "Hepatitis C virus, Li23, HCV strain KAH5, 72 hrs", "experimental": "as §1, with “G418. […]” for “G418.”\nas §2"}, "[4]": {"molecular_target": "T1, renilla luciferase (RL) activity (Renilla reniformis, UniProt P27652)", "T1 construct": "expressed in transfected cells; host or cells: OR6 (HuH-7-derived) and ORL8 (Li23-derived) cells harbouring genome-length HCV-RNA that encodes RL; cell lysate", "T1 sequence (P27652 whole entry)": "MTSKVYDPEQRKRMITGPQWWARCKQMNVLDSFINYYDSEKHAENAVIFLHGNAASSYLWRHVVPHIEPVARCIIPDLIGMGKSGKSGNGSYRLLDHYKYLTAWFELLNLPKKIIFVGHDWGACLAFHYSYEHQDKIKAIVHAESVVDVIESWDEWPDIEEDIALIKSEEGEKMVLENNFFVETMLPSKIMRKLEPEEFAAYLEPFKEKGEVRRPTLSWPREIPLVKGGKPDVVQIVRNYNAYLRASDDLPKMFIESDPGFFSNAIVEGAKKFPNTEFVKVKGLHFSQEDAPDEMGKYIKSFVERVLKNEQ", "assay": "Direct effect on RL activity in cell lysate", "format": "biochemical", "excerpt": "The genome-length HCV-RNA used in the assay systems described above contains three non-natural elements: RL, neomycin phosphotransferase, and an internal ribosomal entry site of encephalomyocarditis virus. To exclude the possibility that the anti-HCV activity of N-89 or N-251 was due to the inhibition of these three exogenous elements, we examined the anti-HCV activities of N-89 and N-251 using the authentic 9.6 kb HCV-RNA-replicating HCV-O/RLGE cells, which were developed by the introduction of in vitro synthesized HCV-O/RLGE RNA (Fig. 2A) into OR6c cured cells.\nSupplementary file pone.0072519.s002.tif: Figure S2 No inhibition of RL activity by N-89 or N-251. […] N-89 or N-251 was added to the OR6 cell lysate, and then an RL assay was performed. […] N-89 or N-251 was added to the ORL8 cell lysate, and then an RL assay was performed. (TIF) Click here for additional data file."}, "[5]": {"tested_on": "HCV-RNA replication in ORL8 cells", "assay": "Combination with IFN-α and/or RBV, ORL8 RL assay", "format": "cell-based, hepatitis C virus", "settings": "72 hrs; for anti-HCV effect in combination with IFN-α: IFN-α more than 4 IU/ml", "excerpt": "We examined the anti-HCV activity of N-89 or N-251 in combination with IFN-α using OR6 and ORL8 assay systems. […] However, such an effect was not clear in the OR6 assay (Fig. S4A). […] Therefore, we next examined the combination effect of RBV in the same way as IFN-α using an ORL8 assay. […] Therefore, we further examined the effect of N89 or N-251 in combination with both IFN-α and RBV using an ORL8 assay.\nFigure 6 Synergistic anti-HCV effects of N-89 or N-251 in combination with IFN-α and/or RBV on HCV-RNA replication in ORL8 cells. […] ORL8 cells were treated with N-89 (upper panel) or N-251 (lower panel) in combination with IFN-α (A), RBV (B), or IFN-α and RBV (C) for 72 hrs and subjected to RL assay."}, "Plasmodium falciparum": {"tested_on": "Plasmodium falciparum", "set-up": "method as in PMID 11428929, PMID 17273878, PMID 12723958", "settings": "cited from earlier work"}, "[6]": {"assay": "Viability of RSc-JRN/35B cells (WST-1, trypan blue cell counting)", "format": "cell-based, human", "settings": "human, read-out: viable cells by cell counting after trypan blue dye treatment", "experimental": "as §3\n(§4) We next examined whether N-89 and N-251 worked in an HCV production system using HCV-JFH-1 strain (genotype 2a). […] To clarify whether anti-HCV activity depends on the difference of genotype or assay model, we evaluated the activities of N-89 and N-251 using RSc-JRN/35B [Ikeda et al., submitted] cells harboring a subgenomic HCV-JFH-1 replicon as an additional assay."}, "RSc-JRN/35B cells": {"tested_on": "RSc-JRN/35B cells", "assay": "Viability of RSc-JRN/35B cells (WST-1, trypan blue cell counting)", "format": "cell-based, human", "settings": "10 µM", "experimental": "as §3, §4"}, "[7]": {"settings": "reagent added along with substrate to OR6 cell lysate"}, "[8]": {"settings": "reagent added along with substrate to ORL8 cell lysate"}},
  "data": [
    {"smiles": "C1CCCCCC2(CCCCC1)OOCCCOO2", "note": "[N-89, 1,2,6,7-Tetraoxaspiro[7.11]nonadecane]", "values": [
      {"measurement": "anti-HCV activity (suppression)", "setting": "[1]; 8 µM in OR6 cells, without a decrease in cell viability", "value": "> 99", "unit": "%"},
      {"measurement": "EC50", "setting": "[1]", "value": 660, "unit": "nM"},
      {"measurement": "CC50 at 72 h", "setting": "[2]", "value": 9300, "unit": "nM"},
      {"measurement": "EC50", "setting": "[3]", "value": 190, "unit": "nM"},
      {"measurement": "direct effect on RL activity", "setting": "[4]; [7]", "value": "No suppressive effects"},
      {"measurement": "direct effect on RL activity", "setting": "[4]; [8]", "value": "No suppressive effects"},
      {"measurement": "anti-HCV effect in combination with RBV", "setting": "[5]", "value": "synergistic effect"},
      {"measurement": "anti-HCV effect in combination with both IFN-α and RBV", "setting": "[5]", "value": "synergistically enhanced"},
      {"measurement": "anti-HCV effect in combination with IFN-α", "setting": "[5]", "value": "synergistic effect"},
      {"measurement": "antimalarial activity in vitro", "setting": "Plasmodium falciparum", "value": "potent antimalarial activity"}
    ]},
    {"smiles": "OCCCCCCC1COOC2(CCCCCCCCCCC2)OOC1", "note": "[N-251, 6-(1,2,6,7-tetraoxaspiro[7.11]nonadec-4-yl)hexan-1-ol]", "values": [
      {"measurement": "EC50", "setting": "[1]", "value": 690, "unit": "nM"},
      {"measurement": "CC50 at 72 h", "setting": "[2]", "value": 3800, "unit": "nM"},
      {"measurement": "EC50", "setting": "[3]", "value": 290, "unit": "nM"},
      {"measurement": "viability at 10 µM", "setting": "[6]", "value": "~30", "unit": "%"},
      {"measurement": "relative value of WST-1", "setting": "RSc-JRN/35B cells", "value": "almost became zero"},
      {"measurement": "direct effect on RL activity", "setting": "[4]; [7]", "value": "No suppressive effects"},
      {"measurement": "direct effect on RL activity", "setting": "[4]; [8]", "value": "No suppressive effects"},
      {"measurement": "anti-HCV effect in combination with RBV", "setting": "[5]", "value": "synergistic effect"},
      {"measurement": "anti-HCV effect in combination with both IFN-α and RBV", "setting": "[5]", "value": "synergistically enhanced"},
      {"measurement": "anti-HCV effect in combination with IFN-α", "setting": "[5]", "value": "synergistic effect"}
    ]}
  ]
}
